Reference: the supplement of paper PMC13380429

What was measured:
[1] = test system: A549-ACE2; assay: drug-induced phospholipidosis relative to tamoxifen; higher = more phospholipidosis
[2] = test system: U2OS; assay: relative viability EC50 (midpoint between 100% and the lowest measured viability); higher = less toxic; details: 72 h
[3] = test system: Vero E6; assay: as above; details: 72 h
[4] = test system: HepG2; assay: as above; details: 72 h
[5] = test system: Caco-2; assay: as above; details: 72 h
[6] = test system: U2OS; assay: drug sensitivity score (DSS) for viability; higher = more toxic; extreme values may be limits of the assay; details: 72 h
[7] = test system: Vero E6; assay: as above; details: 72 h
[8] = test system: Calu-3; assay: as above; details: 72 h
[9] = test system: HepG2; assay: as above; details: 72 h
[10] = test system: Caco-2; assay: as above; details: 72 h
[11] = test system: A549-ACE2 infected with SARS-CoV-2; assay: morphology score (similarity to uninfected cells); higher = more like uninfected cells; details: 24 h
[12] = test system: A549-ACE2; assay: phospholipidosis EC50; higher = less potent phospholipidosis inducer
[13] = test system: A549-ACE2 infected with SARS-CoV-2; assay: cell count relative to DMSO; higher = less toxic; details: 24 h
[14] = test system: A549-ACE2 infected with SARS-CoV-2; assay: SARS-CoV-2 infection rate relative to DMSO; higher = more infection; details: 24 h
[15] = test system: U2OS; assay: cell viability relative to DMSO; higher = less toxic; details: 72 h
[16] = test system: Vero E6; assay: as above; details: 72 h
[17] = test system: Calu-3; assay: as above; details: 72 h
[18] = test system: HepG2; assay: as above; details: 72 h
[19] = test system: Caco-2; assay: as above; details: 72 h

Fc1cc(-c2cccc3ncc(-c4cnn(C5CCNCC5)c4)nc23)cc(F)c1CN1CCOCC1 [NVP-BSK805]
drug-induced phospholipidosis [%], [1]
Details | 0.3 µM | 0.833333 µM | 3.33333 µM | 6.66667 µM | 10 µM | 30 µM
24 h | 5.98 | 16 | 55.1 | 93.5 | 113 | 119
48 h | 2.53 | 10.2 | 51.2 | 101 | 134 | –
72 h | 5.16 | 6.57 | 55.6 | 119 | – | –

Details | drug sensitivity score | relative viability EC50 [µM]
[2] | – | 2.9
[3] | – | 3.15
[4] | – | 2.28
[5] | – | 3.55
[6] | 4.6 | –
[7] | 2.7 | –
[8] | 1.1 | –
[9] | 4.6 | –
[10] | 2.9 | –

Details | SARS-CoV-2 infection rate [%] | cell count [%] | cell viability [%] | morphology score | phospholipidosis EC50 [µM]
[11], 0.1 µM | – | – | – | 0.17 | –
[11], 0.3 µM | – | – | – | 0.13 | –
[11], 1 µM | – | – | – | 0.47 | –
[11], 3 µM | – | – | – | 0.68 | –
[12], 24 h | – | – | – | – | 3.94
[12], 48 h | – | – | – | – | 9.74
[12], 72 h | – | – | – | – | 4.49
[13], 0.1 µM | – | 102 | – | – | –
[13], 0.3 µM | – | 103 | – | – | –
[13], 1 µM | – | 105 | – | – | –
[13], 3 µM | – | 110 | – | – | –
[14], 0.1 µM | 96 | – | – | – | –
[14], 0.3 µM | 100 | – | – | – | –
[14], 1 µM | 86 | – | – | – | –
[14], 3 µM | 45 | – | – | – | –
[15], 1 nM | – | – | 101 | – | –
[15], 10 nM | – | – | 101 | – | –
[15], 100 nM | – | – | 97.6 | – | –
[15], 1000 nM | – | – | 97.2 | – | –
[15], 10000 nM | – | – | 22.9 | – | –
[16], 1 nM | – | – | 97.9 | – | –
[16], 10 nM | – | – | 102 | – | –
[16], 100 nM | – | – | 100 | – | –
[16], 1000 nM | – | – | 99.9 | – | –
[16], 10000 nM | – | – | 48.4 | – | –
[17], 1 nM | – | – | 99.5 | – | –
[17], 10 nM | – | – | 97.2 | – | –
[17], 100 nM | – | – | 95 | – | –
[17], 1000 nM | – | – | 104 | – | –
[17], 10000 nM | – | – | 69.6 | – | –
[18], 1 nM | – | – | 106 | – | –
[18], 10 nM | – | – | 110 | – | –
[18], 100 nM | – | – | 96.2 | – | –
[18], 1000 nM | – | – | 93.1 | – | –
[18], 10000 nM | – | – | 35.8 | – | –
[19], 1 nM | – | – | 99.5 | – | –
[19], 10 nM | – | – | 98.8 | – | –
[19], 100 nM | – | – | 104 | – | –
[19], 1000 nM | – | – | 105 | – | –
[19], 10000 nM | – | – | 39.8 | – | –

CSc1ccc2c(c1)[C@H](N1CCN(C)CC1)Cc1ccccc1S2 (racemic) [metitepine]
drug-induced phospholipidosis [%], [1]
Details | 0.3 µM | 0.833333 µM | 3.33333 µM | 6.66667 µM | 10 µM | 30 µM
24 h | 7.38 | 6.64 | 62.5 | 91.7 | 105 | 86.3
48 h | 6.3 | 11.3 | 47.9 | 92.1 | 115 | –
72 h | 8.87 | 6.23 | 37.4 | 86.6 | 125 | –

Details | drug sensitivity score | relative viability EC50 [µM]
[2] | – | > 10
[5] | – | 3.35
[6] | 0 | –
[7] | 1.1 | –
[8] | 0.8 | –
[9] | 1.8 | –
[10] | 2.6 | –

Details | SARS-CoV-2 infection rate [%] | cell count [%] | cell viability [%] | morphology score | phospholipidosis EC50 [µM]
[11], 0.1 µM | – | – | – | 0.14 | –
[11], 0.3 µM | – | – | – | 0.39 | –
[11], 1 µM | – | – | – | 0.32 | –
[11], 3 µM | – | – | – | 0.72 | –
[12], 24 h | – | – | – | – | 3.04
[12], 48 h | – | – | – | – | 5.86
[12], 72 h | – | – | – | – | 9.23
[13], 0.1 µM | – | 101 | – | – | –
[13], 0.3 µM | – | 104 | – | – | –
[13], 1 µM | – | 108 | – | – | –
[13], 3 µM | – | 94 | – | – | –
[14], 0.1 µM | 106 | – | – | – | –
[14], 0.3 µM | 90 | – | – | – | –
[14], 1 µM | 88 | – | – | – | –
[14], 3 µM | 47 | – | – | – | –
[15], 1 nM | – | – | 98.9 | – | –
[15], 10 nM | – | – | 97.6 | – | –
[15], 100 nM | – | – | 97.1 | – | –
[15], 1000 nM | – | – | 97.2 | – | –
[15], 10000 nM | – | – | 93.2 | – | –
[16], 1 nM | – | – | 106 | – | –
[16], 10 nM | – | – | 104 | – | –
[16], 100 nM | – | – | 102 | – | –
[16], 1000 nM | – | – | 101 | – | –
[16], 10000 nM | – | – | 71.6 | – | –
[17], 1 nM | – | – | 98.4 | – | –
[17], 10 nM | – | – | 101 | – | –
[17], 100 nM | – | – | 98.2 | – | –
[17], 1000 nM | – | – | 104 | – | –
[17], 10000 nM | – | – | 73.2 | – | –
[18], 1 nM | – | – | 101 | – | –
[18], 10 nM | – | – | 107 | – | –
[18], 100 nM | – | – | 103 | – | –
[18], 1000 nM | – | – | 99 | – | –
[18], 10000 nM | – | – | 64.3 | – | –
[19], 1 nM | – | – | 108 | – | –
[19], 10 nM | – | – | 92.9 | – | –
[19], 100 nM | – | – | 99.2 | – | –
[19], 1000 nM | – | – | 102 | – | –
[19], 10000 nM | – | – | 48.5 | – | –
